Tests used:
Assay type in all cases: in vivo
Setaria viridis [1] = assay: Pre-emergence herbicidal test, SETVI; design: key to herbicidal effect (0-9 scale) SETVI / herbicidal rating SETVI: A rating 0 indicates growth as untreated control; a rating 9 indicates death; conditions: PRE, 21 days after spraying
Protocol: (§1) To evaluate their herbicidal activity, compounds according to the invention are tested using a representative range of plants:
(§2) The pre-emergence tests involve spraying a liquid formulation of the compound onto the soil in which the seeds of the plant species mentioned above has recently been sown.
(§3) The soil used in the tests is a prepared horticultural loam. The formulations used in the tests are prepared from solutions of the test compounds in acetone containing 0.4% by weight of an alkylphenol/ethylene oxide condensate available under the trade mark TRITON X-155. […] In these tests untreated sown soil are used as controls.
(§4) The herbicidal effects of the test compounds are assessed visually twenty-one days after spraying the foliage and the soil and are recorded on a 0-9 scale. A rating 0 indicates growth as untreated control, a rating 9 indicates death. An increase of 1 unit on the linear scale approximates to a 10% increase in the level of effect.

Triticum aestivum [2] = assay: Post-emergence herbicidal test, TRZAW; conditions: POST, 21 days after spraying
Protocol: as §1
(§5) […] After spraying, the plants are placed on greenhouse benches and are cared for in the usual manner, commensurate with conventional greenhouse practices.
as §4

Stellaria media [3] = assay: Pre-emergence herbicidal test, STEME; design: key to herbicidal effect (0-9 scale) STEME / herbicidal rating STEME: A rating 0 indicates growth as untreated control; a rating 9 indicates death; conditions: PRE, 21 days after spraying
Protocol: as §1, §2, §3, §4

Ipomoea hederacea [4] = assay: Post-emergence herbicidal test, IPOHE; design: key to herbicidal effect (0-9 scale) IPOHE / herbicidal rating IPOHE: A rating 0 indicates growth as untreated control; a rating 9 indicates death; conditions: POST, 21 days after spraying
Protocol: as §1, §5, §4

Alopecurus myosuroides [5] = assay: Pre-emergence herbicidal test, ALOMY; design: key to herbicidal effect (0-9 scale) ALOMY / herbicidal rating ALOMY: A rating 0 indicates growth as untreated control; a rating 9 indicates death; conditions: PRE, 21 days after spraying
Protocol: as §1, §2, §3, §4

Galium aparine [6] = assay: Post-emergence herbicidal test, GALAP; design: key to herbicidal effect (0-9 scale) GALAP / herbicidal rating GALAP: A rating 0 indicates growth as untreated control; a rating 9 indicates death; conditions: POST, 21 days after spraying
Protocol: as §1, §5, §4

Abutilon theophrasti [7] = assay: Pre-emergence herbicidal test, ABUTH; design: key to herbicidal effect (0-9 scale) ABUTH / herbicidal rating ABUTH: A rating 0 indicates growth as untreated control; a rating 9 indicates death; conditions: PRE, 21 days after spraying
Protocol: as §1, §2, §3, §4

Abutilon theophrasti [8] = assay: Post-emergence herbicidal test, ABUTH; design: key to herbicidal effect (0-9 scale) ABUTH / herbicidal rating ABUTH: A rating 0 indicates growth as untreated control; a rating 9 indicates death; conditions: POST, 21 days after spraying
Protocol: as §1, §5, §4

Setaria viridis [9] = assay: Post-emergence herbicidal test, SETVI; design: key to herbicidal effect (0-9 scale) SETVI / herbicidal rating SETVI: A rating 0 indicates growth as untreated control; a rating 9 indicates death; conditions: POST, 21 days after spraying
Protocol: as §1, §5, §4

Zea mays [10] = assay: Post-emergence herbicidal test, ZEAMX; design: key: A rating 0 indicates growth as untreated control; a rating 9 indicates death; conditions: 21 days after spraying
Protocol: as §1, §5, §4

Glycine max [11] = assay: Post-emergence herbicidal test, GLXMA; design: key: A rating 0 indicates growth as untreated control; a rating 9 indicates death; conditions: 21 days after spraying
Protocol: as §1, §5, §4

Stellaria media [12] = assay: Post-emergence herbicidal test, STEME; design: key to herbicidal effect (0-9 scale) STEME / herbicidal rating STEME: A rating 0 indicates growth as untreated control; a rating 9 indicates death; conditions: POST, 21 days after spraying
Protocol: as §1, §5, §4

Glycine max [13] = assay: Pre-emergence herbicidal test, GLXMA; conditions: PRE, 21 days after spraying
Protocol: as §1, §2, §3, §4

Galium aparine [14] = assay: Pre-emergence herbicidal test, GALAP; design: key to herbicidal effect (0-9 scale) GALAP / herbicidal rating GALAP: A rating 0 indicates growth as untreated control; a rating 9 indicates death; conditions: PRE, 21 days after spraying
Protocol: as §1, §2, §3, §4

Triticum aestivum [15] = assay: Pre-emergence herbicidal test, TRZAW; design: key: A rating 0 indicates growth as untreated control; a rating 9 indicates death; conditions: 21 days after spraying
Protocol: as §1, §2, §3, §4

Alopecurus myosuroides [16] = assay: Post-emergence herbicidal test, ALOMY; design: key: A rating 0 indicates growth as untreated control; a rating 9 indicates death; conditions: 21 days after spraying
Protocol: as §1, §5, §4

Echinochloa crus-galli [17] = assay: Post-emergence herbicidal test, ECHCG; design: key: A rating 0 indicates growth as untreated control; a rating 9 indicates death; conditions: 21 days after spraying
Protocol: as §1, §5, §4

Echinochloa crus-galli [18] = assay: Pre-emergence herbicidal test, ECHCG; design: key: A rating 0 indicates growth as untreated control; a rating 9 indicates death; conditions: 21 days after spraying
Protocol: as §1, §2, §3, §4

Hordeum vulgare [19] = assay: Post-emergence herbicidal test, HORVW; conditions: 21 days after spraying
Protocol: as §1
These acetone solutions are diluted with water and the resulting formulations applied at dosage levels equivalent to about 1000, 800, 400, 250 or 100 g/ha per hectare of test compound per pot. After spraying, the plants are placed on greenhouse benches and are cared for in the usual manner, commensurate with conventional greenhouse practices.
as §4

Ipomoea hederacea [20] = assay: Pre-emergence herbicidal test, IPOHE; design: key: A rating 0 indicates growth as untreated control; a rating 9 indicates death; conditions: 21 days after spraying
Protocol: as §1, §2, §3, §4

Zea mays [21] = assay: Pre-emergence herbicidal test, ZEAMX; design: key to herbicidal effect (0-9 scale) ZEAMX / herbicidal rating ZEAMX: A rating 0 indicates growth as untreated control; a rating 9 indicates death; conditions: PRE, 21 days after spraying
Protocol: as §1, §2, §3, §4

Hordeum vulgare [22] = assay: Pre-emergence herbicidal test, HORVW; design: key: A rating 0 indicates growth as untreated control; a rating 9 indicates death; conditions: 21 days after spraying
Protocol: as §1, §2, §3, §4

Matricaria inodora [23] = assay: Pre-emergence herbicidal test, MATIN; design: key to herbicidal effect (0-9 scale) MATIN / herbicidal rating MATIN: A rating 0 indicates growth as untreated control; a rating 9 indicates death; conditions: PRE, 21 days after spraying
Protocol: as §1, §2, §3, §4

Matricaria inodora [24] = assay: Post-emergence herbicidal test, MATIN; design: key to herbicidal effect (0-9 scale) MATIN / herbicidal rating MATIN: A rating 0 indicates growth as untreated control; a rating 9 indicates death; conditions: POST, 21 days after spraying
Protocol: as §1, §5, §4

COc1ccc2ccn(-n3c(=O)cc(C(F)(F)F)n(C)c3=O)c2c1 [Example 1, 6-Methoxy-1-(3-methyl-4-trifluoromethylpyrimidin-2,6-dion-1-yl)-indole]
6: herbicidal effect (0-9 scale) TRZAW (Triticum aestivum [2]; 250 g/ha) | herbicidal effect (0-9 scale) GLXMA (Glycine max [13]; 250 g/ha) | herbicidal effect (0-9 scale) GLXMA (Glycine max [13]; 1000 g/ha)
8: herbicidal effect (0-9 scale) TRZAW (Triticum aestivum [2]; 1000 g/ha) | herbicidal effect (0-9 scale) TRZAW (Triticum aestivum [15]; 250 g/ha) | herbicidal effect (0-9 scale) HORVW (Hordeum vulgare [19]; 250 g/ha) | herbicidal effect (0-9 scale) HORVW (Hordeum vulgare [19]; 1000 g/ha) | herbicidal effect (0-9 scale) IPOHE (Ipomoea hederacea [20]; 250 g/ha) | herbicidal effect (0-9 scale) ZEAMX (Zea mays [21]; 250 g/ha) | herbicidal effect (0-9 scale) MATIN (Matricaria inodora [24]; 250 g/ha)
7: herbicidal effect (0-9 scale) HORVW (Hordeum vulgare [22]; 250 g/ha)
9: herbicidal effect (0-9 scale) SETVI (Setaria viridis [1]; 250 g/ha) | herbicidal effect (0-9 scale) SETVI (Setaria viridis [1]; 1000 g/ha) | herbicidal effect (0-9 scale) STEME (Stellaria media [3]; 250 g/ha) | herbicidal effect (0-9 scale) STEME (Stellaria media [3]; 1000 g/ha) | herbicidal effect (0-9 scale) IPOHE (Ipomoea hederacea [4]; 250 g/ha) | herbicidal effect (0-9 scale) IPOHE (Ipomoea hederacea [4]; 1000 g/ha) | herbicidal effect (0-9 scale) ALOMY (Alopecurus myosuroides [5]; 250 g/ha) | herbicidal effect (0-9 scale) ALOMY (Alopecurus myosuroides [5]; 1000 g/ha) | herbicidal effect (0-9 scale) GALAP (Galium aparine [6]; 250 g/ha) | herbicidal effect (0-9 scale) GALAP (Galium aparine [6]; 1000 g/ha) | herbicidal effect (0-9 scale) ABUTH (Abutilon theophrasti [7]; 250 g/ha) | herbicidal effect (0-9 scale) ABUTH (Abutilon theophrasti [7]; 1000 g/ha) | herbicidal effect (0-9 scale) ABUTH (Abutilon theophrasti [8]; 250 g/ha) | herbicidal effect (0-9 scale) ABUTH (Abutilon theophrasti [8]; 1000 g/ha) | herbicidal effect (0-9 scale) SETVI (Setaria viridis [9]; 250 g/ha) | herbicidal effect (0-9 scale) SETVI (Setaria viridis [9]; 1000 g/ha) | herbicidal effect (0-9 scale) ZEAMX (Zea mays [10]; 250 g/ha) | herbicidal effect (0-9 scale) ZEAMX (Zea mays [10]; 1000 g/ha) | herbicidal effect (0-9 scale) GLXMA (Glycine max [11]; 250 g/ha) | herbicidal effect (0-9 scale) GLXMA (Glycine max [11]; 1000 g/ha) | herbicidal effect (0-9 scale) STEME (Stellaria media [12]; 250 g/ha) | herbicidal effect (0-9 scale) STEME (Stellaria media [12]; 1000 g/ha) | herbicidal effect (0-9 scale) GALAP (Galium aparine [14]; 250 g/ha) | herbicidal effect (0-9 scale) GALAP (Galium aparine [14]; 1000 g/ha) | herbicidal effect (0-9 scale) TRZAW (Triticum aestivum [15]; 1000 g/ha) | herbicidal effect (0-9 scale) ALOMY (Alopecurus myosuroides [16]; 250 g/ha) | herbicidal effect (0-9 scale) ALOMY (Alopecurus myosuroides [16]; 1000 g/ha) | herbicidal effect (0-9 scale) ECHCG (Echinochloa crus-galli [17]; 250 g/ha) | herbicidal effect (0-9 scale) ECHCG (Echinochloa crus-galli [17]; 1000 g/ha) | herbicidal effect (0-9 scale) ECHCG (Echinochloa crus-galli [18]; 250 g/ha) | herbicidal effect (0-9 scale) ECHCG (Echinochloa crus-galli [18]; 1000 g/ha) | herbicidal effect (0-9 scale) IPOHE (Ipomoea hederacea [20]; 1000 g/ha) | herbicidal effect (0-9 scale) ZEAMX (Zea mays [21]; 1000 g/ha) | herbicidal effect (0-9 scale) HORVW (Hordeum vulgare [22]; 1000 g/ha) | herbicidal effect (0-9 scale) MATIN (Matricaria inodora [23]; 250 g/ha) | herbicidal effect (0-9 scale) MATIN (Matricaria inodora [23]; 1000 g/ha) | herbicidal effect (0-9 scale) MATIN (Matricaria inodora [24]; 1000 g/ha)

Reference: patent publication US6376426B1, “Herbicidal 3-(heterocycl-1-yl)-uracils” (BASF Aktiengesellschaft, priority 1999, dated 2002)
